According to PubChem BioAssay (NCI):
Values joined by “and” are separate entries in the source; they are usually repeats but may differ in a detail not shown here. Equal values may be shown once.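 48-hour exposure; five concentrations; linearly interpolated endpoints. GI50 is the concentration that inhibits growth by half. TGI marks complete inhibition of growth.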

Experiments:
Test in all cases: inhibition of tumour cell growth, NCI panel, 48 h
M14 melanoma = tested on: M14 melanoma
SF-539 CNS = tested on: SF-539 CNS
RPMI-8226 leukemia = tested on: RPMI-8226 leukemia
MCF7 breast = tested on: MCF7 breast
NCI-H226 lung = tested on: NCI-H226 lung
SR leukemia = tested on: SR leukemia
UACC-257 melanoma = tested on: UACC-257 melanoma
TK-10 renal = tested on: TK-10 renal
MDA-MB-435 = tested on: MDA-MB-435
UACC-62 melanoma = tested on: UACC-62 melanoma
MDA-N = tested on: MDA-N
RXF 393 renal = tested on: RXF 393 renal
OVCAR-5 ovarian = tested on: OVCAR-5 ovarian
PC-3 prostate = tested on: PC-3 prostate
NCI-H522 lung = tested on: NCI-H522 lung
SW-620 colon = tested on: SW-620 colon
LOX IMVI melanoma = tested on: LOX IMVI melanoma

Structure (SMILES)	TGI (M14 melanoma) [µM]	TGI (SF-539 CNS) [µM]	TGI (RPMI-8226 leukemia)	TGI (MCF7 breast) [µM]	TGI (NCI-H226 lung) [µM]	TGI (SR leukemia) [µM]	TGI (UACC-257 melanoma) [µM]	TGI (TK-10 renal) [µM]	TGI (MDA-MB-435) [µM]	TGI (UACC-62 melanoma) [µM]	TGI (MDA-N) [µM]	TGI (RXF 393 renal) [µM]	TGI (OVCAR-5 ovarian) [µM]	TGI (PC-3 prostate) [µM]	TGI (NCI-H522 lung) [µM]	TGI (SW-620 colon) [µM]	TGI (LOX IMVI melanoma) [µM]	GI50 (RPMI-8226 leukemia)	GI50 (NCI-H226 lung)	GI50 (PC-3 prostate)
CCCCn1c(N)c(-c2nc3ccccc3o2)sc1=S	> 100	23.2	67.4 µM	> 100	43.1	> 100	> 100	39.3	38.5	31.9	69.1	> 100	53.6	> 100	31.5					
COC(=O)[C@H](CCSC)NC(=O)N[C@H](C)c1ccccc1	> 100	> 100	> 100 µM	> 100	> 100	> 100	> 100	> 100	> 100	> 100	> 100		> 100	> 100	47.5	> 100	> 100			
N#CC1C(=O)NC23CCCCC2C1c1ccccc1O3 (configuration not stated)	> 100		> 100 µM	> 100	> 100		> 100	> 100	> 100	> 100	> 100	> 100	> 100	> 100	> 100	> 100	> 100			
COC(=O)[C@@H]1CC(C(C[N+](=O)[O-])c2ccc(O[Si](C)(C)C(C)(C)C)cc2)C(=O)N1C(=O)OC(C)(C)C (some centres not stated)	> 100	> 100	72.4 µM and 95 µM	> 100	> 100	> 100	> 100	> 100	> 100		> 100	> 100	> 100	> 100	> 100	> 100	> 100	3.2 µM and 23.7 µM	12.6 µM and 35 µM	> 100 µM and 34.5 µM
CC(=O)C1C(=O)C(=O)N(c2cccc([N+](=O)[O-])c2)C1=O (configuration not stated)	> 100	> 100		> 100	> 100		> 100	> 100	> 100	> 100	> 100	> 100	> 100	> 100	> 100	> 100	> 100			
O=c1[nH]cc(-c2c[nH]c3ccccc23)nc1-c1c[nH]c2ccccc12	28.1	55.5	43.8 µM	54.7			26.9	30.5	14	23.7	9.44	10.3	27.6	51.1	20.3	18.1	27.5			
Cc1cc(S(=O)(=O)Nc2nc3ccccc3nc2-c2cccc([N+](=O)[O-])c2)c(S)cc1Cl	35.1	38.1	64.7 µM	64.5	44.5	47.4	36	> 100	41	31.8	46.2	74.4	88.4	50.8	38.9					
CS(=O)(=O)OCC1CN(S(C)(=O)=O)c2cc(O)ccc21 (configuration not stated)		7	12.2 µM	26.2	12.3	> 100	7.72	6.62	4.07		4.52	3.47	18.3	5.62	2.94	28.3	13.3			
CC(C)(C)OC(=O)NC(Cc1ccccc1)OCc1ccccc1 (configuration not stated)	39.7	39	72.6 µM	35.9	34.4	> 100	> 10	41.2	42.7	28.7	38.1	35.1	58.2	26.7	26.9	34.2				
CC1=NC(=Cc2cccc(Cl)c2)C(=O)N1n1c(-c2ccccc2)nc2ccccc2c1=O	> 100	> 100	> 100 µM	55.3	> 100	63.5	70.3	> 100	> 100	> 100	> 100			> 100	67.7	> 100	55.2			
COc1cc2c(c(OC)c1)/C(=C/Sc1ccccc1)C(=O)N(C(C)(C)C)C2		> 100	94.5 µM	96.3	> 100	66.7	85.3	> 100	55.2	90	73		> 100	> 100		> 100	37.1			
CC1(C)C=Cc2c(cc(O)c3c(=O)c4cc(Cl)ccc4[nH]c23)O1		> 10	6.27 µM	> 10		> 10	> 10	> 10	> 10	> 10	8.58	> 10	6.16	7.12	6.46	> 10	8.11			
CCOC(=O)C1=NOC2(C=C(Br)C(=O)C(Br)=C2)C1	3.29	20.2	2.56 µM	11.1	52.9		2.71	2.27	3.49	8.54	3.39	3.54	12.6	5.31	1.34	2.77	7.63			
CCc1nn(CN2CCOCC2)c(=S)n1/N=C/c1ccc(-c2ccc(Cl)cc2)o1	> 100	> 100	> 100 µM	> 100	> 100	> 100	> 100	> 100	> 100		> 100	> 100	> 100	> 100	> 100	> 100	> 100			
CC(=O)c1ccc2c(c1)CC1(C2)Cc2cc3c(cc2C1=O)CCC3 (configuration not stated)	28.9	72.4	35.2 µM	43.8		16.7	30.2	71.3	32.4		32.9	90.4	83	72.2	83.6	> 100	40.6			
CC(C)(C)OC(=O)N/N=C(/N)Cc1ccc(Cl)cc1	> 100			> 100	> 100	> 100	> 100	> 100	> 100	> 100	> 100	> 100	> 100	> 100	> 100	> 100	> 100			
NC(N)=NCC[C@H](NC(=O)OCCCCCn1ccc(=O)[nH]c1=O)C(=O)O		> 100	> 100 µM	> 100	> 100		> 100	> 100	> 100	> 100	> 100	> 100	> 100	> 100		> 100	> 100			
Nc1n[n+](CC(=O)c2ccccc2)c2sc(-c3ccccc3)nn12	> 100	> 100	> 100 µM	> 100	> 100		> 100	> 100	> 100	82.7	> 100	> 100	> 100	> 100	> 100	> 100	> 100			
Cc1ccccc1-n1c(=O)c2ncn(C3CCCO3)c2n(-c2ccccc2C)c1=S (configuration not stated)	> 100	> 100	> 100 µM	> 100	> 100		> 100	> 100	> 100	> 100	> 100	> 100	> 100		> 100	> 100	> 100			
COc1cc(C2SCC(=O)N2c2cccc(Cl)c2)cc(OC)c1OC (configuration not stated)	> 100	> 100	> 100 µM	> 100	> 100	> 100	> 100	> 100	> 100	54.3	43		> 100	> 100	> 100	> 100	> 100			
CNC(=O)C1(N)c2ccccc2C=Cc2ccccc21	> 100	> 100	> 100 µM	> 100	> 100	> 100		> 100	> 100	> 100	> 100		> 100	> 100	> 100	> 100	> 100			
COc1cc2c(cc1OC)C1C=NC(C2)c2cc(OC)c(OC)cc21 (configuration not stated)	> 100	> 100	> 100 µM	> 100	> 100	> 100	> 100	> 100	> 100	> 100	> 100		> 100	> 100	> 100	> 100	> 100			
COc1cc(/C=C/c2nc(NC(=S)Nc3ccccc3)nnc2C)cc(OC)c1OC	> 100		67.8 µM	> 100	81.4	> 100	> 100	> 100	> 100	51.1	> 100	66.8	> 100	> 100	28.4	> 100	> 100			
C[n+]1ccc(/C2=C3\C=CC(=N3)/C(c3cc[n+](C)cc3)=c3/cc/c([nH]3)=C(\c3cc[n+](C)cc3)C3=N/C(=C(/c4cc[n+](C)cc4)C4C=CC2N4)C=C3)cc1	> 100	> 100	> 100 µM	> 100	> 100	> 32.9	> 100	> 100	> 100	> 100	> 100	> 100	> 100		> 100	> 100	> 100			
C/C(=N\Nc1ccc([N+](=O)[O-])cc1[N+](=O)[O-])c1sc(-n2nc(-c3ccccc3)cc2-c2ccccc2)nc1C	> 100	> 100	41.4 µM	> 100	> 100	46.8	84.7	> 100	> 100	> 100	> 100		> 100		> 100	> 100	63.9			
O=C(NNCC(O)COc1ccccc1)c1ccccc1 (configuration not stated)	> 100	> 100	> 100 µM	> 100	> 100		> 100	> 100	> 100	> 100	> 100	> 100	> 100	> 100	> 100	> 100	> 100			
CCOC(=O)C1C(c2ccc3c(c2)OCO3)c2c([nH][nH]c2=O)CC1(C)O (configuration not stated)	> 100	> 100	> 100 µM	> 100		> 100	> 100	> 100	> 100	> 100	> 100		> 100	> 100	> 100	> 100	> 100			
O=C1OCC2OC(=O)c3cc(O)c(O)c(O)c3-c3c(O)c(O)c(O)c4c3C(=O)OC(C2OC(=O)c2cc(O)c(O)c(O)c2-c2c1cc(O)c(O)c2O)C1OC(=O)c2c-4c(O)c(O)c(O)c2[C@@H]1C(O)C(O)C(O)C(O)CO (some centres not stated)	39.4		73.8 µM	17.6	42.6	> 100	46.7		21.9	36.7	25.5	34.3	33	42.7	39.7	44.5	6.04			
